Results taken from paper PMC5862892, “Near-native, site-specific and purification-free protein labeling for quantitative protein interaction analysis by MicroScale Thermophoresis” (Scientific Reports, 2018).
“Also recorded” adds a separate entry of the source.

Legend:
[1] = target: pUL50 (Human cytomegalovirus) (UniProt P16791); assay: ITC; settings: cited from earlier work
mNeonGreen-His6 = assay: MST: mNeonGreen-His6 negative control against SB203580 in HeLa cell lysate; assay type: binding
His-tag = target: His-tag; design: method as in PMID 16028931; settings: read-out: molecular binding affinity of Ni(II)-NTA for His-tag; cited from earlier work

Chain of UniProt P16791 (P16791 whole entry): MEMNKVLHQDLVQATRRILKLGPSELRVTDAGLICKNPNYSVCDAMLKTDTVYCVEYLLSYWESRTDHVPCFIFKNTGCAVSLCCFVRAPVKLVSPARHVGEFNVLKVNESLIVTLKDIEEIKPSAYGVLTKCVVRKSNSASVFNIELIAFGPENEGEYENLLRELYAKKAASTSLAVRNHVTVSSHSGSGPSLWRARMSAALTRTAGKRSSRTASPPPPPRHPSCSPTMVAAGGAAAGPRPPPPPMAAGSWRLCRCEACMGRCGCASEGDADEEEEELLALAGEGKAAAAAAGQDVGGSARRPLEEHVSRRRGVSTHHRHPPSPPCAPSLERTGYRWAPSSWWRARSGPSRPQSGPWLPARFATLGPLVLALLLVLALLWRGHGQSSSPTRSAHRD

In the case of pUL53 (from UniProt P16794), the Kd [1] is listed as 0.29 µM.
In the case of `C[S+]([O-])c1ccc(-c2nc(-c3ccncc3)c(-c3ccc(F)cc3)[nH]2)cc1` (stereo not drawn) [SB203580], the “binding to RED-tris-NTA labeled mNeonGreen-His6 (p38α-free negative control)” value (mNeonGreen-His6) is reported as “no binding could be detected; also recorded: did not yield a binding curve”.
In the case of `O=C(O)CN(CC(=O)O)CC(=O)O` [NTA, nitrilotriacetic acid], the Kd (His-tag) is given as ~10 µM.
